Experimental data taken from US20230257372A1 (CHONG KUN DANG PHARMACEUTICAL CORP., priority 2020, published 2023).
pIC50: −log10 of the molar value. Where two headings read alike, the source gives them in different places.

How the values were obtained:
human recombinant HDAC6 = biological target: T1, human recombinant HDAC6 (Homo sapiens, UniProt Q9UBN7); assay: HDAC6 enzyme activity inhibition (HDAC Fluorimetric Drug Discovery Kit); format: biochemical
T1 construct: purchased Calbiochem Inc. 382180
T1 sequence (Q9UBN7 1-1215): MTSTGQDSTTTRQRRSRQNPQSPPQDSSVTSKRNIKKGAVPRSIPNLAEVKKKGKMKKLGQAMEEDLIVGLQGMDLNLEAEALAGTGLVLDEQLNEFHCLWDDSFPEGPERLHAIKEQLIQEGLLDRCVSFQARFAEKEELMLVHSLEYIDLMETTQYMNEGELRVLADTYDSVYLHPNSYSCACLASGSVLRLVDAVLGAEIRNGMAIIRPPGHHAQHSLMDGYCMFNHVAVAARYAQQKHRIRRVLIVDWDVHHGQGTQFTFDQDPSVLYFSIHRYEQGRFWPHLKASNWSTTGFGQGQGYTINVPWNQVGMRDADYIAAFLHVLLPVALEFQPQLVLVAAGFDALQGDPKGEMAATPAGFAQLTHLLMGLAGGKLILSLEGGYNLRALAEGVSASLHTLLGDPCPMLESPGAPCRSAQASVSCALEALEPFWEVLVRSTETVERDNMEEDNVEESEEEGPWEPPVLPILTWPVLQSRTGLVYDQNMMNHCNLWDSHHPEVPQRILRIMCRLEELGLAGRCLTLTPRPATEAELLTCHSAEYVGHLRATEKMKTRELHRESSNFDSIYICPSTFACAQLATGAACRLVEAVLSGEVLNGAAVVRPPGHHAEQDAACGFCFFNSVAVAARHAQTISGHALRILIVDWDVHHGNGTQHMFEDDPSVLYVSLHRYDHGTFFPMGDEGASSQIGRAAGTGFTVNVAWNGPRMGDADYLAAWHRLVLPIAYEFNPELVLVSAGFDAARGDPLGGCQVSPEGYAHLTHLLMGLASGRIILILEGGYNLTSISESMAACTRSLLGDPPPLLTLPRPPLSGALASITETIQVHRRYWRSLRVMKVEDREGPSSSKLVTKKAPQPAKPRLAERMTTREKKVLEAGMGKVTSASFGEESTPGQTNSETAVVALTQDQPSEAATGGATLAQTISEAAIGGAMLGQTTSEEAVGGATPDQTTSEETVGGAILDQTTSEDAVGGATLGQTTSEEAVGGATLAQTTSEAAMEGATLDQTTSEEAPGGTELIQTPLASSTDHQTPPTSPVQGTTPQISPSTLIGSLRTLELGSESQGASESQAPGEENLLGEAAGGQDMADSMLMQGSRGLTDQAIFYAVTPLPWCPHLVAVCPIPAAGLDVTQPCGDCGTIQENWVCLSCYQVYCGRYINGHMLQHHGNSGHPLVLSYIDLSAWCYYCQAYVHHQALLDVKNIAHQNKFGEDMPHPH
Method in brief: (§1)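 Fluorimetric deacetylase read-out. 5-fold compound dilutions; […] enzyme, 10 μM substrate; 30° C, 60 min; developer 30 min.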

human recombinant HDAC1 = biological target: T2, human recombinant HDAC1 (Homo sapiens, UniProt Q13547); assay: HDAC1 enzyme activity inhibition (HDAC Fluorimetric Drug Discovery Kit); format: biochemical; conditions: read-out: HDAC1
T2 construct: purchased Enzo Life Science, Inc. BML-SE456
T2 sequence (Q13547 whole entry): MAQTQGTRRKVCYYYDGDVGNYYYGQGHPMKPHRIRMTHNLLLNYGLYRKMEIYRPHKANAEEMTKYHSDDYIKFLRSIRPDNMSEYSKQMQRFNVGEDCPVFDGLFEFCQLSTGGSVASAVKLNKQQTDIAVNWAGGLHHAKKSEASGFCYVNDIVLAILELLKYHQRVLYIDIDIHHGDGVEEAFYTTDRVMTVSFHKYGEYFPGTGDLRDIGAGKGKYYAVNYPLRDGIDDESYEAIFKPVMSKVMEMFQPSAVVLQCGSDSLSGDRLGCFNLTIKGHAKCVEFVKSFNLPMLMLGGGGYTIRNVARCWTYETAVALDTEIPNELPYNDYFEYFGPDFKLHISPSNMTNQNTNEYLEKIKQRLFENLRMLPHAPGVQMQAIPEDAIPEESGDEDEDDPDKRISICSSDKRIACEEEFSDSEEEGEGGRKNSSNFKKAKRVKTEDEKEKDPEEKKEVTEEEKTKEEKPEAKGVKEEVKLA
Method in brief: as §1

[1] = human recombinant HDAC6, same protocol as HDAC1
[2] = human recombinant HDAC1, Fluor de Lys substrate, 30° C. 60 minutes
[3] = human recombinant HDAC6, IC50 calculated with GraphPad Prism
[4] = human recombinant HDAC1, IC50 calculated with GraphPad Prism

| Structure (SMILES) | HDAC6 selectivity (fold) (human recombinant HDAC6; HDAC6 over HDAC1) | pIC50 (human recombinant HDAC6; [1]) | pIC50 (human recombinant HDAC1; [2]) | HDAC6 selectivity (fold) (human recombinant HDAC6; HDAC1 IC50 / HDAC6 IC50) | pIC50 (human recombinant HDAC6; [3]) | pIC50 (human recombinant HDAC1; [4]) |
| --- | --- | --- | --- | --- | --- | --- |
| CN1CCC(F)(c2cn(Cc3ccc(-c4nnc(C(F)F)o4)cn3)nn2)CC1 [Compound 4005, 2-(difluoromethyl)-5-(6-((4-(4-fluoro-1-methylpiperidin-4-yl)-1H-1,2,3-triazol-1-yl)methyl)pyridin-3-yl)-1,3,4-oxadiazole] |  |  |  | 379 | 6.88 | < 4.30 |
| CCN1CCCC(c2cn(Cc3ccc(-c4nnc(C(F)F)o4)cn3)nn2)C1 (stereo not drawn) [Compound 4002, 2-(difluoromethyl)-5-(6-((4-(1-ethylpiperidin-3-yl)-1H-1,2,3-triazol-1-yl)methyl)pyridin-3-yl)-1,3,4-oxadiazole] |  |  |  | 96 | 6.28 | < 4.30 |
| O=C(CO)N1CCC(c2cn(Cc3ccc(-c4nnc(C(F)F)o4)cn3)nn2)CC1 [Compound 3813, 1-(4-(1-((5-(5-(difluoromethyl)-1,3,4-oxadiazol-2-yl)pyridin-2-yl)methyl)-1H-1,2,3-triazol-4-yl)piperidin-1-yl)-2-hydroxyethan-1-one] |  |  |  | 166 | 6.52 | < 4.30 |
| CC(C)(C)OC(=O)N1CC(c2cn(Cc3ccc(-c4nnc(C(F)F)o4)cn3)nn2)C1 [Compound 3926, Tert-butyl 3-(1-((5-(5-(difluoromethyl)-1,3,4-oxadiazol-2-yl)pyridin-2-yl)methyl)-1H-1,2,3-triazol-4-yl)azetidin-1-carboxylate] |  |  |  | 308 | 6.79 | < 4.30 |
| Fc1cc(-c2nnc(C(F)F)o2)ccc1Cn1cc(-c2ccc3c(c2)CN(C2COC2)CC3)nn1 [Compound 4367, 2-(difluoromethyl)-5-(3-fluoro-4-((4-(2-(oxetan-3-yl)-1,2,3,4-tetrahydroisoquinolin-7-yl)-1H-1,2,3-triazol-1-yl)methyl)phenyl)-1,3,4-oxadiazole] |  |  |  | 1210 | 7.38 | < 4.30 |
| FC(F)c1nnc(-c2ccc(Cn3cc(-c4cccc(N5C[C@@H]6C[C@H]5CN6)c4)nn3)cc2)o1 [Compound 4317, 2-(4-((4-(3-((1S,4S)-2,5-diazabicyclo[2.2.1]heptan-2-yl)phenyl)-1H-1,2,3-triazol-1-yl)methyl)phenyl)-5-(difluoromethyl)-1,3,4-oxadiazole] |  |  |  | 598 | 7.08 | < 4.30 |
| CN1Cc2cccc(-c3cn(Cc4ccc(-c5nnc(C(F)F)o5)cc4F)nn3)c2C1 [Compound 4534, 2-(difluoromethyl)-5-(3-fluoro-4-((4-(2-methylisoindolin-4-yl)-1H-1,2,3-triazol-1-yl)methyl)phenyl)-1,3,4-oxadiazole] | 529 | 7.03 | < 4.30 |  |  |  |

Results, then the compound that gave them:

| HDAC6 selectivity (fold) (human recombinant HDAC6; HDAC6 over HDAC1) | pIC50 (human recombinant HDAC6; [1]) | pIC50 (human recombinant HDAC1; [2]) | HDAC6 selectivity (fold) (human recombinant HDAC6; HDAC1 IC50 / HDAC6 IC50) | pIC50 (human recombinant HDAC6; [3]) | pIC50 (human recombinant HDAC1; [4]) | Structure (SMILES) |
| --- | --- | --- | --- | --- | --- | --- |
| 172 | 6.54 | < 4.30 |  |  |  | Fc1cc(-c2nnc(C(F)F)o2)ccc1Cn1cc(-c2ccccc2CNC2CCC2)nn1 [Compound 4589, N-(2-(1-(4-(5-(difluoromethyl)-1,3,4-oxadiazol-2-yl)-2-fluorobenzyl)-1H-1,2,3-triazol-4-yl)benzyl)cyclobutanamine] |
| 782 | 7.19 | < 4.30 |  |  |  | CCN1Cc2cccc(-c3cn(Cc4ccc(-c5nnc(C(F)F)o5)cn4)nn3)c2C1 [Compound 4596, 2-(difluoromethyl)-5-(6-((4-(2-ethylisoindolin-4-yl)-1H-1,2,3-triazol-1-yl)methyl)pyridin-3-yl)-1,3,4-oxadiazole] |
| 3496 | 7.84 | < 4.30 |  |  |  | Fc1cc(-c2nnc(C(F)F)o2)ccc1Cn1cc(-c2ccc(CN3CCCCC3)cc2)nn1 [Compound 4610, 2-(difluoromethyl)-5-(3-fluoro-4-((4-(4-(piperidin-1-ylmethyl)phenyl)-1H-1,2,3-triazol-1-yl)methyl)phenyl)-1,3,4-oxadiazole] |
